Assay results published in ChEMBL document CHEMBL4028835, “Identification of low micromolar dual inhibitors for aldose reductase (ALR2) and poly (ADP-ribose) polymerase (PARP-1) using structure based design approach” (Bioorg Med Chem Lett, 2017).

Assays:
[1] = Inhibition of goat lenses ALR2 using glyceraldehyde as substrate measured for 5 mins by UV-spectrophotometric method; design: species or system Capra hircus
[2] = biological target: Poly [ADP-ribose] polymerase 1 (Homo sapiens, UniProt P09874); test: Inhibition of PARP1 (unknown origin) using activated DNA as substrate measured after 60 mins in presence of biotinylated NAD by colorimetric assay
Sequence of Poly [ADP-ribose] polymerase 1 (P09874 whole entry): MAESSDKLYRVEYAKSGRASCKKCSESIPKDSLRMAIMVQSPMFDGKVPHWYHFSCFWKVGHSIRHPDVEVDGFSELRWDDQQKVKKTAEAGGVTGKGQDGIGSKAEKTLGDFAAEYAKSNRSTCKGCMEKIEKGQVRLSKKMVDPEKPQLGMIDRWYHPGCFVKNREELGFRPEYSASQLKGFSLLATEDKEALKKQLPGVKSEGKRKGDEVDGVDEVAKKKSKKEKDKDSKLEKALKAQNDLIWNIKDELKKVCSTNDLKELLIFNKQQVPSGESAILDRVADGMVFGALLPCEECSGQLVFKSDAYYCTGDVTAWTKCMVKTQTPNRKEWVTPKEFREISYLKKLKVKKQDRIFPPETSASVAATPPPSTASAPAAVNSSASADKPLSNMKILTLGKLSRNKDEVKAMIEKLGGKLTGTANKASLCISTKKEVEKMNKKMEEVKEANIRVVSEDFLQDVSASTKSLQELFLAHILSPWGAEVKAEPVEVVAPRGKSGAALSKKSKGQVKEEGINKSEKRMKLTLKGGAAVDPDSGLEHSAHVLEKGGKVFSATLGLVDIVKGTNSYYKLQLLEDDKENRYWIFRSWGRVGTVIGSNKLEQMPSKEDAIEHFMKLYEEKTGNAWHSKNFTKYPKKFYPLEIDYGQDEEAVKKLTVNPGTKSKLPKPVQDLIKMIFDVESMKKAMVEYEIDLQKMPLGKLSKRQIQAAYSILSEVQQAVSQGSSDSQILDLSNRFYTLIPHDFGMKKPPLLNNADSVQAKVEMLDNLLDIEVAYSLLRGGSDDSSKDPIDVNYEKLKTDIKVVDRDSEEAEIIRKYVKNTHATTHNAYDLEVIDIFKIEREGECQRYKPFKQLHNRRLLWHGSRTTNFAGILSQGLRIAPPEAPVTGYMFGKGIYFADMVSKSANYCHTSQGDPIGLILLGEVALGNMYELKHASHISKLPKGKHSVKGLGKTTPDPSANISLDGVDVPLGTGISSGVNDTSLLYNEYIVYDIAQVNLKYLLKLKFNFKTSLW

SMILES	IC50 [1] [µM]	IC50 [2] [µM]
O=C1NC(=O)/C(=C/c2cn(Cc3cccc(C(F)(F)F)c3)c3ccccc23)S1	22.9	
CC(/C=C1\SC(=S)N(CC(=O)O)C1=O)=C\c1ccccc1	0.09	
O=C1NC(=O)/C(=C/c2c[nH]c3ccccc23)S1	16.4	> 100
O=C1NC(=O)/C(=C/c2cn(Cc3ccccc3Cl)c3ccccc23)S1	4.72	
Cc1ccc(Cn2cc(C=C3SC(=O)NC3=O)c3ccccc32)cc1	11.5	
CCc1ccc(Cn2cc(C=C3SC(=O)NC3=O)c3ccccc32)cc1	13.9	
O=C1NC(=O)/C(=C/c2cn(Cc3ccc(F)cc3)c3ccccc23)S1	1.7	
O=C1NC(=O)/C(=C/c2cn(Cc3ccc(Cl)cc3)c3ccccc23)S1	15.4	> 100
CC(C)(C)c1ccc(Cn2cc(/C=C3\SC(=O)NC3=O)c3ccccc32)cc1	48.5	
O=C1NC(=O)/C(=C/c2cn(Cc3cccc(Cl)c3)c3ccccc23)S1	23	
CC(C)c1ccc(Cn2cc(C=C3SC(=O)NC3=O)c3ccccc32)cc1	40	0.74
O=C1NC(=O)/C(=C/c2cn(Cc3ccccc3)c3ccccc23)S1	6.57	> 100
O=C1NC(=O)/C(=C/c2cn(Cc3ccc(Cl)cc3Cl)c3ccccc23)S1	24.4	
